From US8906943B2, “Synthetic compounds and methods to decrease nicotine self-administration” (priority 2010, dated 2014) come the findings set out here.

One data set deals with CYP2B1 (Rattus norvegicus (Rat), UniProt P00176). In words: Inhibition of rat CYP2B1. The conditions noted are these: pH 7.5, Inhibitor present at 100 μM, read-out: rCYP2B1 % inhibition. It is filed as biochemical.
The test system of data set [1] is nicotine self-administration in male Wistar rats. The data set can be described thus: Nicotine i.v. self-administration (IVSA) in rats, FR1 schedule. It is filed as in vivo, rat. The note with it: for Number of nicotine infusions, Compound (15 mg/kg): 15 mg/kg i.p. 30 minutes before i.v. self-administration of 0.03 mg/kg/infusion nicotine; for % Change (decrease in nicotine self-administration): versus vehicle; for effect on nicotine intake, ANOVA of dose response: 1-hour self-administration sessions; for Number of nicotine infusions, Compound (25 mg/kg): 25 mg/kg i.p. 30 minutes before i.v. self-administration of 0.03 mg/kg/infusion nicotine; for ED50: Rattus norvegicus, iv, rats, read-out: apparent ED50, nicotine IVSA. The procedure:
Male, Wistar rats trained in a paradigm of nicotine i.v. self-administration (IVSA) generally related to a modification of a previously published protocol (Watkins et al., Pharmacol Biochem Behavior 62, 743-751 (1999)). Rats were treated with test compounds I-7. […] At 3.0 mg/kg, responding for nicotine was decreased by 62% when compared to control (vehicle-treated) conditions. […] On the basis of these initial studies, more extensive work was done and IVSA studies of compounds 8, 10 and 11 were conducted.
As with all the compounds examined in this study, there was no carry-over effect. […] The dose-effect function for treatment of 11 on nicotine self-administration is shown in [FIG. 2].

For a further data set, the target named is human CYP2A6 (Homo sapiens (Human), UniProt P11509). The data set can be described thus: Inhibition of human CYP2A6-mediated coumarin 7-hydroxylation. It is filed as biochemical. The note with it: for pKi: read-out: Ki human CYP 2A6. The procedure:
Our first studies were with highly purified human CYP2A6 that provided a convenient and relatively high-throughput measure of CYP2A6 inhibition. Full dose-response IC50 values (nine concentrations) were determined (Table 1).

The target in the next data set is hCYP2B6 (Homo sapiens (Human), UniProt P20813). In words: CYP2B6 inhibition, vivid blue substrate O-dealkylation. It is filed as biochemical. The conditions noted are these: for pIC50: ND = no detectable inhibition. The procedure:
(§1) To gain insight into the selectivity of the synthetic compounds for inhibition of other CYPs, we examined the major CYPs present in human liver. […] A typical incubation mixture (final volume 0.25 mL) contained 50 mM Tris or KPhos buffer (pH 7.5), 0.5 mM NADP^+, 2.0 mM G6P, 1 U of G6P dehydrogenase and 0.6 mg DETAPAC and the inhibitor was added last to minimize interaction with the protein. After mixing on ice, the reaction was initiated by the addition of substrate and incubated at 37° C. with shaking in air. Organic extracts were analyzed by fluorescence (for fluorometric substrates) or injected onto a Hitachi L-7100 system equipped with a Hitachi L-7400 UV detector. Separations were done with an Altex Ultrasphere ODS (4.6 mm×250 mm, 5 μm) column and analytes were eluted with an isocratic solvent system consisting of water/acetonitrile/methanol (30:10:60, v/v/v) at a flow rate of 1.0 mL/min. Quantification of substrate and metabolite was determined from peak areas of the chromatogram and comparison with standard curves. IC50 values were determined with GraphPad Prism and kinetic data was converted into IC50 values. Each kinetic determination was reported as the mean±SD as described below. […] To measure CYP2A6 activity, coumarin 7-hydroxylation was determined as described in Denton et al., supra. To measure CYP3A4 activity, testosterone 6-hydroxylation was determined as described in Denton et al., supra. To measure CYP2E1, CYP2B6, CYP2C9, CYP2C19 and CYP2D6 activity, isozyme specific vivid blue substrate O-dealkylation was determined via a modified PanVera Vivid Assay Protocol as described in Denton et al., supra.

The next data set concerns the target CYP3A4 (Homo sapiens (Human), UniProt P08684). In words: in vitro. The note with it: pH 7.5. The procedure:
as §1, with “Separations were done with an Altex Ultrasphere ODS (4.6 mm×250 mm, 5 μm) column and analytes were eluted with an isocratic solvent system consisting of water/acetonitrile/methanol (30:10:60, v/v/v) at a flow rate of 1.0 mL/min.” left out, “values.” for “values. Each kinetic determination was reported as the mean±SD as described below.”

The target of the next data set is CYP2E1 (Homo sapiens (Human), UniProt P05181). The data set can be described thus: CYP2E1 inhibition, vivid blue substrate O-dealkylation. It is filed as biochemical. The note with it: for inhibition of human CYP 2E1 (in words): 10 μM; for inhibition at 10 µM: human, pH 7.5, probe isozyme specific vivid blue substrate (O-dealkylation), mean of triplicate, read-out: CYP2E1 Percent Inhibition. The protocol:
as §1

For another data set, the target named is CYP2C9 (Homo sapiens (Human), UniProt P11712). In words: CYP2C9 inhibition, vivid blue substrate O-dealkylation. It is filed as biochemical. The note with it: pH 7.5, probe isozyme specific vivid blue substrate (O-dealkylation), mean of triplicate, read-out: CYP2C9 Percent Inhibition. The protocol:
as §1

For a further data set, the target named is CYP2C19 (Homo sapiens (Human), UniProt P33261). The data set can be described thus: CYP2C19 inhibition, vivid blue substrate O-dealkylation. It is filed as biochemical. The conditions noted are these: pH 7.5, probe isozyme specific vivid blue substrate (O-dealkylation), mean of triplicate, read-out: CYP2C19 Percent Inhibition. The procedure:
as §1

Another data set deals with CYP2D6 (Homo sapiens (Human), UniProt P10635). In words: CYP2D6 inhibition, vivid blue substrate O-dealkylation. It is filed as biochemical. The conditions noted are these: pH 7.5, probe isozyme specific vivid blue substrate (O-dealkylation), mean of triplicate, read-out: CYP2D6 Percent Inhibition. The procedure:
as §1

A further data set has as its system food intake in rats. In words: Order and food effects, operant food sessions. It is filed as in vivo, rat. The conditions noted are these: for Food Effects: mean ± SEM. The source says:
The conclusion is that the effect of 10 and 11 was selective and highly efficacious on a biological target and not a promiscuous non-specific behavioral effect.

Setting [2] is: Table 1, purified human CYP2A6, nine concentrations, read-out: hCYP2A6 IC50.
[3] abbreviates: Table 3, read-out: CYP2A6 Inhibition IC50.

SMILES strings stand for the structures. pIC50, pKi: −log10 of the molar value. Where two headings read alike, the source gives them in different places. Marks after values point to notes of the source that are not given here.

Sequence of CYP2E1 (P05181 whole entry): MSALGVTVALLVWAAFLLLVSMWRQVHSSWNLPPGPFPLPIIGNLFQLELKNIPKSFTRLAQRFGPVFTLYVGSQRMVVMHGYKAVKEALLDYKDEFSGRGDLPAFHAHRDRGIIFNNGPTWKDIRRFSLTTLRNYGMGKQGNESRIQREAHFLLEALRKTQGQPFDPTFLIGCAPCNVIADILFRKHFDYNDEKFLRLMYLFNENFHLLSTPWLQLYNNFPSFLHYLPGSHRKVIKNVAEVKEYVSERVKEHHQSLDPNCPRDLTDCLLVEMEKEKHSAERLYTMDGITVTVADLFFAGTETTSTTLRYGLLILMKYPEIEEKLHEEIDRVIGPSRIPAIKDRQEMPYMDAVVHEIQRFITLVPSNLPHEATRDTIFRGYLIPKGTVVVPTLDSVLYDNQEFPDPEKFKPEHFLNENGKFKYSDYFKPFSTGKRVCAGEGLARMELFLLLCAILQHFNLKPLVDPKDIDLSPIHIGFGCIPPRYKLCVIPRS
Sequence of CYP2D6 (P10635 whole entry): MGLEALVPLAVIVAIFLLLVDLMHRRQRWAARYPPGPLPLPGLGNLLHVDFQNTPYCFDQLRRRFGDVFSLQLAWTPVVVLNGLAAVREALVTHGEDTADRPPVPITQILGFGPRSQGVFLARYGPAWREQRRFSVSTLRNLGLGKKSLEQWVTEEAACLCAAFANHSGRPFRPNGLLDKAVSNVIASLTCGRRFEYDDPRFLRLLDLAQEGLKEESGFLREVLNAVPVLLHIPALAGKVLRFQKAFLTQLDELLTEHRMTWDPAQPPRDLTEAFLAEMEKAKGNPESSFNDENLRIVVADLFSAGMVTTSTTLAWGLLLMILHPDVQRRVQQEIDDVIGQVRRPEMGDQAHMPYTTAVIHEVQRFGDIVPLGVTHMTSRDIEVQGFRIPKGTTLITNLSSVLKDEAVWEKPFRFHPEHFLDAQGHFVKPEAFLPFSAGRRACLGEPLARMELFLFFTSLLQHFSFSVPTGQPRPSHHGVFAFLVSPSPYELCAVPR
Sequence of CYP2C9 (P11712 whole entry): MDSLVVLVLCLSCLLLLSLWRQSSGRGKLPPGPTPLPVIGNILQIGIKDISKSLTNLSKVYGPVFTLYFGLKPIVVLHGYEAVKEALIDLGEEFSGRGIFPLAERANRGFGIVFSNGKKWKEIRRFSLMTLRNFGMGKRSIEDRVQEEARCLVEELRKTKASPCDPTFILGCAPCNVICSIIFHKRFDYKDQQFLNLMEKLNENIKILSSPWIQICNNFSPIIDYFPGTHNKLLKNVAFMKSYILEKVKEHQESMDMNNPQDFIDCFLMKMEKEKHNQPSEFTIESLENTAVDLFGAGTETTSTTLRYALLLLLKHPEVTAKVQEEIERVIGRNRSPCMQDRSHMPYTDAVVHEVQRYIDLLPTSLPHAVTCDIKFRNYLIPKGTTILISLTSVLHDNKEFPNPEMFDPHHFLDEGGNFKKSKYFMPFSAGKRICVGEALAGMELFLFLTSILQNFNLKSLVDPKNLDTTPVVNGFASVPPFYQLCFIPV
Sequence of human CYP2A6 (P11509 whole entry): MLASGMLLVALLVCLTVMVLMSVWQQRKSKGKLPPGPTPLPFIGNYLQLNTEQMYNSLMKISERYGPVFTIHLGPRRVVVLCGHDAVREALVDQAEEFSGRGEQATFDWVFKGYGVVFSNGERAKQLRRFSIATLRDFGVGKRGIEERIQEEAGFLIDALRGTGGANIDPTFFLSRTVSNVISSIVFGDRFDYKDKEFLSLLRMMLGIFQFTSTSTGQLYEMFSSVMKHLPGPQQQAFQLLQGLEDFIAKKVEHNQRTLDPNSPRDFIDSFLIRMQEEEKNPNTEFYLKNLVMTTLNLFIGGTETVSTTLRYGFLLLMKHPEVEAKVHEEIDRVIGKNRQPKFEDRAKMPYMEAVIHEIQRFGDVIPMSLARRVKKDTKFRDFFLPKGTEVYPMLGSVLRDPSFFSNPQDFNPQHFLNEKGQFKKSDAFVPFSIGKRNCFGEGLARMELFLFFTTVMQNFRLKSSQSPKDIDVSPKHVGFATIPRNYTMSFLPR
Sequence of CYP2B1 (P00176 whole entry, the tested form may be a part): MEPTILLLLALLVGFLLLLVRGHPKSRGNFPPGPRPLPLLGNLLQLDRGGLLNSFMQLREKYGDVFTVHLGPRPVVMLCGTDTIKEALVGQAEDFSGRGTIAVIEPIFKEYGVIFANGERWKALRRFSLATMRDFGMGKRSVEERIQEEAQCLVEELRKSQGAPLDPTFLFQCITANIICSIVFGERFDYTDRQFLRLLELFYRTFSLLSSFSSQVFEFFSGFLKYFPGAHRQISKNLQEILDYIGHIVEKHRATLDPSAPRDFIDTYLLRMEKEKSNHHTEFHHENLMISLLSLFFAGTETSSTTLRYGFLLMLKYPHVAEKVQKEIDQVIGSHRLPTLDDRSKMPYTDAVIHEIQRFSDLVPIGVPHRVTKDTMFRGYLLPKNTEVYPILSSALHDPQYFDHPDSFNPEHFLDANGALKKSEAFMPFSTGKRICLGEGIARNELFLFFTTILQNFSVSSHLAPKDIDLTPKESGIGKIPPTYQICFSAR
Sequence of hCYP2B6 (P20813 whole entry): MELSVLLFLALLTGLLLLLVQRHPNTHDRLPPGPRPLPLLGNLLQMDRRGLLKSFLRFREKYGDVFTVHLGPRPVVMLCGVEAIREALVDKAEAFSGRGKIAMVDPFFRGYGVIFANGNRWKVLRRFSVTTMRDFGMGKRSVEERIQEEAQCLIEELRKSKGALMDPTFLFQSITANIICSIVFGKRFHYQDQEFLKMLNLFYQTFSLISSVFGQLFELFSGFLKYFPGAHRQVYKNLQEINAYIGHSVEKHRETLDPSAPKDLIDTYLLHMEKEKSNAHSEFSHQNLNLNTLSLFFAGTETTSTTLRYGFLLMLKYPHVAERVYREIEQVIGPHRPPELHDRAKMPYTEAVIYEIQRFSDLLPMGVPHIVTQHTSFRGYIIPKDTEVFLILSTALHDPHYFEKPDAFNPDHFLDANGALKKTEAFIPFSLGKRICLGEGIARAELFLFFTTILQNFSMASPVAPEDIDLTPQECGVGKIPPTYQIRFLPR
Sequence of CYP2C19 (P33261 whole entry): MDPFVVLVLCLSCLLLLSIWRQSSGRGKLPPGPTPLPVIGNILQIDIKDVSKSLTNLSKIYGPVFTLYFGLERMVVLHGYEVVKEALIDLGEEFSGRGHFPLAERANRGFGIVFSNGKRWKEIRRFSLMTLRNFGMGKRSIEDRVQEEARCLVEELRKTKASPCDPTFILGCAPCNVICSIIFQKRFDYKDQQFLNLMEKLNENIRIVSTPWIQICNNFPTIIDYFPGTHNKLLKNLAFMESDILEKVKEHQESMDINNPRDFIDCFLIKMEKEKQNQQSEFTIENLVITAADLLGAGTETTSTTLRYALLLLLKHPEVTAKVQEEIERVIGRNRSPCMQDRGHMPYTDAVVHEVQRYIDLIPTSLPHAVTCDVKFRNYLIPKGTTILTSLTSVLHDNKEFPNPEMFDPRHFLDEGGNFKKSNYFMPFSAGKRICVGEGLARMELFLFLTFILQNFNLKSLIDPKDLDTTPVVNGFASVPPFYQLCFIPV
Sequence of CYP3A4 (P08684 whole entry): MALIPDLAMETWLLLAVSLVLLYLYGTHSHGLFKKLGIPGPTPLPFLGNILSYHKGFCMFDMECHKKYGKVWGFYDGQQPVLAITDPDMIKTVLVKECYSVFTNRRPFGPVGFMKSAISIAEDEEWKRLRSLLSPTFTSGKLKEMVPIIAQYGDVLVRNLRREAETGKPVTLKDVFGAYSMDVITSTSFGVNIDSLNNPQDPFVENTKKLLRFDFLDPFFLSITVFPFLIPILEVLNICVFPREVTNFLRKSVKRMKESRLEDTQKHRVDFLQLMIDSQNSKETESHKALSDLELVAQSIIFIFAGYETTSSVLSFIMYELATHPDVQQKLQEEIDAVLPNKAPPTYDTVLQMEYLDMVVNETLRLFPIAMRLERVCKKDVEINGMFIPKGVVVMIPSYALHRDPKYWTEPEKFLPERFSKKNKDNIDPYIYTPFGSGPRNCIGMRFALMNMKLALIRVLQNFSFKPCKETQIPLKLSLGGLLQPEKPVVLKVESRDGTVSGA

On to `NCc1ccc(-c2cccnc2)s1` [Compound 4], for which the inhibition (in general, the drop in the measured response relative to a control, in per cent) at 100 µM at CYP2B1 is 42.7%. For the same compound, the “Number of nicotine infusions, Compound (15 mg/kg)” value (“Number … (15 mg/kg)” below) in data set [1] (FR1) stood at 11.8 ± 3.2. Further, the “% Change (decrease in nicotine self-administration)” value in data set [1] (15 mg/kg i.p.) was 23.4%.
Take `c1cncc(-c2c[nH]cn2)c1` [Compound 8]: the pIC50 – broadly, the negative decadic logarithm of the IC50, by convention in mol/L – on human CYP2A6 (setting [2]) was 3.10; at human CYP2A6 (setting [3]) it was 6.10. Besides, the “effect on nicotine intake, ANOVA of dose response” value (shortened to “effect on nicotine intake, ANOVA”) in data set [1] (i.p.) is “failed to reveal a significant effect”.
For `N[C@@H]1C[C@H]1c1ccccc1` (racemic) [Tranylcypromine, reference compound], the pIC50 at human CYP2A6 (setting [3]) was 6.63.
Turning to `Cc1ccsc1-c1cccnc1` [Compound 5], the pIC50 at human CYP2A6 (setting [2]) is […]. Further, the inhibition at 100 µM on CYP2B1 is 47.9%. In data set [1] (FR1), the “Number … (15 mg/kg)” value stood at […] and the “Number of nicotine infusions, Compound (25 mg/kg)” value (“Number … (25 mg/kg)” below) is given as […].
Consider `c1cn(CC2CCCCC2)cn1` [Compound 10, N-(Cyclohexylmethyl)imidazole], for which the pIC50 on human CYP2A6 (setting [2]) was 3.77; on hCYP2B6, 4.96. Further, the “inhibition of human CYP 2B6 (in words)” value at hCYP2B6 is “inhibited human CYP 2B6 to a certain extent”. The inhibition at 100 µM on CYP2B1 came to 56.9%. In addition, the inhibition at 10 µM was 27% against CYP3A4; 89% on CYP2E1; 44% on CYP2C9; 24% at CYP2C19; 34% at CYP2D6. The “inhibition of human CYP 2E1 (in words)” value against CYP2E1 was “some inhibition”. Also, the ED50 (commonly the midpoint of the dose-response relation) in data set [1] is 4 mg/kg. Further, the “effect on nicotine intake, ANOVA” value in data set [1] (i.p.) is “significant effect”. Moreover, the “Food Effects” value turned out to be 80 ± 1.8 in the data set on food intake in rats (Dose 0.5 mg/kg), 79 ± 2.5 in the data set on food intake in rats (Dose 1.58 mg/kg) and 77 ± 3.2 with food intake in rats (Dose 5.0 mg/kg).
With `NCc1cc(-c2cccnc2)no1` [Compound 2], the pIC50 on human CYP2A6 (setting [2]) is 6.10; on hCYP2B6, 4.17. Also, the inhibition at 100 µM at CYP2B1 came to 55.3%. Further, the “Number … (15 mg/kg)” value in data set [1] (FR1) stood at 8.4 ± 1.7. Further, the “% Change (decrease in nicotine self-administration)” value in data set [1] (15 mg/kg i.p.) amounted to 19.2%; in data set [1] (25 mg/kg i.p.), 60. %. Moreover, the “Number … (25 mg/kg)” value in data set [1] (FR1) is listed as 5.6 ± 1.6^d.
Consider `c1cc(CCn2ccnc2)ccn1` [Compound 9, N-(4-Pyridylethyl)imidazole], for which the inhibition at 100 µM on CYP2B1 came out at 53.5%. Moreover, in [1] (15 mg/kg, i.p., 30-min prior), the “nicotine self-administration under a FR schedule (in words)” value is on record as “decreased nicotine self-administration”.
Consider `NCc1cc(-c2cccnc2)n[nH]1` [Compound 1], for which the results for the pIC50 at human CYP2A6 (setting [2]) and on hCYP2B6 were 6.22 and 4.18, respectively. In addition, the inhibition at 100 µM on CYP2B1 stood at 53.8%. Further, the “Number … (15 mg/kg)” value in data set [1] (FR1) was 11.6 ± 2.9. The “% Change (decrease in nicotine self-administration)” value in [1] (15 mg/kg i.p.) is 14.7%.
On to `c1cncc(Cn2ccnc2)c1` [Compound 7, N-(3-Pyridylmethyl)imidazole], for which, at human CYP2A6 (setting [2]), the pIC50 was under 3.70. For the same compound, on human CYP2A6, the pKi (commonly the negative decadic logarithm of the Ki, by convention in mol/L) was under 3.70. Also, at CYP2B1, the inhibition at 100 µM was 43.3%. The “Number … (15 mg/kg)” value in [1] (FR1) is 7.5 ± 1.9^d. Besides, the “% Change (decrease in nicotine self-administration)” value in [1] (15 mg/kg i.p.) came out at 28.6%.
`NCc1ccc(-c2cccnc2)o1` [Compound 6]: the pIC50 on human CYP2A6 (setting [2]) is 6.70. For the same compound, the inhibition at 100 µM on CYP2B1 was 46.6%. In data set [1] (FR1), the “Number … (15 mg/kg)” value is reported as 16.8 ± 2.3^d and the “Number … (25 mg/kg)” value is 8.3 ± 2.1^d. In addition, the “% Change (decrease in nicotine self-administration)” value in [1] (15 mg/kg i.p.) is recorded as 27.6%. Besides, the “% Change (decrease in nicotine self-administration)” value in data set [1] (25 mg/kg i.p.) amounted to 64.2%.
Regarding `CNC1(C)C2CCC(C2)C1(C)C` (centres unmarked) [Mecamylamine, reference compound], in [1] (3.0 mg/kg, s.c., 30 minutes before the session, FR1), the “decrease in responding for nicotine versus vehicle” value is on record as 62%.
Take `Clc1ccc(Cn2ccnc2)cc1` [Compound 3, N-(4-Chlorobenzyl)imidazole]: the results for the pIC50 on human CYP2A6 (setting [2]) and on hCYP2B6 were 6.80 and 4.92, respectively. Also, the pKi at human CYP2A6 was 7.10. Besides, the “inhibition of human CYP 2B6 (in words)” value on hCYP2B6 is “inhibited human CYP 2B6 to a certain extent”. Besides, at CYP2B1, the inhibition at 100 µM is 35.5%. The “inhibition of human CYP 2E1 (in words)” value on CYP2E1 is recorded as “some inhibition”. In addition, the inhibition at 10 µM on CYP2E1 was found to be 87%; at CYP2C9 it was 32%; on CYP2C19 it was 43%; at CYP2D6, 48%. Also, the “Number … (15 mg/kg)” value in data set [1] (FR1) is 13.0 ± 2.7. The “% Change (decrease in nicotine self-administration)” value in data set [1] (15 mg/kg i.p.) worked out at 23.6%.
For the compound `c1ccc(CCn2ccnc2)cc1` [Compound 11, 1-Phenethyl-2-imidazol-1-yl], the pIC50 on human CYP2A6 (setting [2]) is 3.21; at human CYP2A6 (setting [3]), 6.21; against hCYP2B6, under 4.70. On hCYP2B6, the “inhibition of human CYP 2B6 (in words)” value is reported as “inhibited human CYP 2B6 to a certain extent”. Besides, the inhibition at 100 µM at CYP2B1 stood at 67.7%. Further, the inhibition at 10 µM against CYP3A4 was determined as 63%; on CYP2E1 it was 88%; on CYP2C9, 13%; on CYP2C19, 21%; at CYP2D6, 62%. For the same compound, the “inhibition of human CYP 2E1 (in words)” value at CYP2E1 is “some inhibition”. Further, the ED50 in data set [1] was 3 mg/kg. For the same compound, in data set [1] (i.p.), the “effect on nicotine intake, ANOVA” value is reported as “significant effect”. Besides, the “effect on food intake (in words)” value with food intake in rats (5 mg/kg, 30-min operant food sessions) was “significant suppression”. For the same compound, the “Food Effects” value was 79 ± 1.3 in the data set on food intake in rats (Dose 2.8 mg/kg) and 63 ± 5.6 with food intake in rats (Dose 5.0 mg/kg).
